Source: patent publication US20250236642A1, “PHARMACEUTICAL COMPOSITION FOR TREATMENT OR PREVENTION OF ADULT T-CELL LEUKEMIA” (NEC Corporation, priority 2022, published 2025)
Where two headings read alike, the source gives them in different places. No end group written: not given here.

How the values were obtained:
[1] = target: T1, HLA-A*02:06 molecule (Homo sapiens, UniProt P04439, D140Y/D185E/D98H/E176V/E277Q/F33Y/G131W/G231S/I119V/I121R/I166T/I218V/L300P/L318F/N151K/N90K/P208A/P217A/Q86G/Q94H/R138H/R169H/T345S); test: Binding of peptide to HLA-A*02:06 molecule using RA2.6 cells
T1 construct: expressed in transfected cells; host or cells: RA2.6 cells (mouse TAP-deficient RMAS with HLA-A*02:06 cDNA)
Description: Measurement of binding ability of a peptide to an HLA-A*02:06 molecule, which is a product of an HLA-A*02:06 gene, was performed using RA2.6 cells (a cell line newly created at Kochi University) obtained by introducing cDNA of the HLA-A*02:06 gene into RMAS, which is a mouse transporter associated with antigen processing (TAP)-deficient cell line.
A fluorescently labeled monoclonal antibody BB7.2 that specifically recognizes a peptide binding type HLA-A*02:06 molecule was added thereto, and the mixture was incubated on ice for 20 minutes to stain the cells.

[2] = target: T2, HLA-A*02:01 molecule (Homo sapiens, UniProt P04439, D140Y/D185E/D98H/E176V/E277Q/G131W/G231S/I119V/I121R/I166T/I218V/L300P/L318F/N151K/N90K/P208A/P217A/Q86G/Q94H/R138H/R169H/T345S); test: Binding of peptide to HLA-A*02:01 molecule using cell line T2
T2 construct: using a cell line T2 (purchased from ATCC) expressing an HLA-A*02:01 molecule; host or cells: T2 cell line
Description: Measurement of binding ability of a peptide to an HLA-A*02:01 molecule, which is a product of an HLA-A*02:01 gene, was performed using a cell line T2 (purchased from ATCC) expressing an HLA-A*02:01 molecule.
T2 cells and purified β2m were added to a serial dilution series of a peptide whose binding ability was to be measured, and then the mixture was incubated at 37° C. for four hours. HLA-A*02:01 molecules whose expression level increased in a peptide concentration-dependent manner by this time point were stained using an association-type specific fluorescently labeled monoclonal antibody BB7.2.
Thereafter, the amount of fluorescence per cell was measured with a flow cytometer, and a dissociation constant Kd value was calculated by the method disclosed in the article (Udaka et al., Immunogenetics, 51, 816-828, 2000) by the present inventor.

[3] = target: HLA-A*24:02 molecule (Homo sapiens, UniProt P04439, D101N/D140Y/D185E/E176V/E190D/F33S/G103R/G107R/I119L/I121M/I306V/K335N/L105A/L180Q/L300P/N151K/N90K/Q86E/Q94H/R106L/R138H/R89G/T104I/T345S/V100E/W191G/Y123F); test: Binding of peptide to HLA-A*24:02 molecule using C1R-A24 cells
Description: Measurement of binding ability of a peptide to an HLA-A*24:02 molecule, which is a product of an HLA-A*24:02 gene, was performed using C1R-A24 cells expressing an HLA-A*24:02 molecule (Cells created by Professor Masafumi Takiguchi, Kumamoto University, was provided by Assistant Professor Masaki Yasukawa, Ehime University, with permission).
First, the C1R-A24 cells were exposed to acidic conditions at pH 3.3 for 30 seconds to dissociate and remove an endogenous peptide originally binding to an HLA-A*24:02 molecule and light chain β2m commonly associated with an HLA class I molecule. After neutralization, purified β2m was added to the C1R-A24 cells, and the mixture was added to a peptide dilution series and incubated on ice for four hours.
Thereafter, the number of MHC-peps for each C1R-A24 cell (proportional to a fluorescence intensity of the fluorescent antibody) was quantitatively measured using a fluorescence cell analyzer FACScan (Becton-Dickinson).

[4] = Table 2, dissociation constant Kd value (−log Kd value), >−3.0 = no significant binding ability, read-out: Measured value of allele A*02:06 (converted)
[5] = Table 2, dissociation constant Kd value (−log Kd value), >−3.0 = no significant binding ability, read-out: Measured value of allele A*02:01 (converted)
[6] = Table 2, dissociation constant Kd value (−log Kd value), >−3.0 = no significant binding ability, read-out: Measured value of allele A*24:02 (converted)
[7] = Measured value of allele A*24:02, Table 2, dissociation constant Kd value (−log Kd value), >−3.0 = no significant binding ability
[8] = Table 4, Kd value (−log Kd value), smaller than −3 = binding property, read-out: Measured value of allele A*24:02 (converted)

## ALAPPTAQL [compound 6]
[1]; [4]
  Kd: 0.392 µM
[2]; [5]
  Kd: 0.265 µM
[3]; [6]
  Kd: 4.69 µM

## ALLAPAVLL [compound 7]
[1]; [4]
  Kd: 1.43 µM
[2]; [5]
  Kd: 0.216 µM
[3]; [6]
  Kd: 1.09 µM

## ALPAPHLTL [compound 18]
[1]
  Kd: 3.03 µM
[2]
  Kd: 1.02 µM
[3]; [7]
  Kd: 0.185 µM

## ALPKIRARV [compound 12]
[1]; [4]
  Kd: 16.6 µM
[2]; [5]
  Kd: 2.19 µM
[3]; [6]
  Kd: 0.66 µM

## ALQFLIPRL [compound 22]
[1]
  Kd: 1.45 µM
[2]
  Kd: 1.26 µM
[3]; [7]
  Kd: 10.9 µM

## ALQPPCPNL [compound 31]
[1]
  Kd: 23.1 µM
[2]
  Kd: 7.44 µM
[3]; [7]
  Kd: 4.94 µM

## ALRPAPALL [compound 26]
[1]; Table 2, dissociation constant Kd value (−log Kd value), >−3.0 = no significant binding ability
  Measured value of allele A*02:06: >−3.37
[1]; [4]
  Kd: > 427 µM
[2]; [5]
  Kd: 0.774 µM
[3]; [6]
  Kd: 0.397 µM

## AQAPPTAQL [compound 5]
[1]
  Kd: 1.42 µM
[2]
  Kd: 0.961 µM
[3]; [7]
  Kd: 1.77 µM

## AQISAYRTC [compound 50]
[1]; [4]
  Kd: 82.1 µM
[2]; [5]
  Kd: > 1000 µM
[3]; [6]
  Kd: > 1000 µM
[3]; [8]
  Kd: > 1000 µM

## ARHSTIPLV [compound 77]
[1]; [4]
  Kd: > 1000 µM
[2]; [5]
  Kd: > 1000 µM
[3]; [6]
  Kd: > 1000 µM
[3]; [8]
  Kd: > 1000 µM

## ATAPPTAQL [compound 25]
[1]; [4]
  Kd: 0.684 µM
[2]; [5]
  Kd: 10.1 µM
[3]; [6]
  Kd: 29.2 µM

## ATGDCSSFI [compound 59]
[1]; [4]
  Kd: > 1000 µM
[1]; Table 4, Kd value (−log Kd value), smaller than −3 = binding property
  Measured value of allele A*02:06: >−3
[2]; [5]
  Kd: 83.1 µM
[3]; [6]
  Kd: > 1000 µM
[3]; [8]
  Kd: > 1000 µM

## AYRTCWIFS [compound 49]
[1]; [4]
  Kd: > 1000 µM
[2]; [5]
  Kd: > 1000 µM
[3]; [6]
  Kd: 3.82 µM

## CDLSSFEFF [compound 58]
[1]; [4]
  Kd: > 1000 µM
[2]; [5]
  Kd: > 1000 µM
[3]; [6]
  Kd: 80.3 µM

## CIDEHQWQL [compound 28]
[1]; [4]
  Kd: 5.62 µM
[2]; [5]
  Kd: 14 µM
[3]; [6]
  Kd: 332 µM

## CLDEHQWQL [compound 9]
[1]; [4]
  Kd: 0.474 µM
[2]; [5]
  Kd: 0.216 µM
[3]; [6]
  Kd: 1.36 µM

## CMIVHQGTI [compound 36]
[1]; [4]
  Kd: 42.4 µM
[2]; [5]
  Kd: > 1000 µM
[3]; [6]
  Kd: 2.91 µM

## CTDEHQWQL [compound 39]
[1]; [4]
  Kd: 0.16 µM
[2]; [5]
  Kd: 9.07 µM
[3]; [6]
  Kd: > 1000 µM
[3]; [8]
  Kd: > 1000 µM

## EAIDGYITL [compound 47]
[1]; [4]
  Kd: 18.9 µM
[2]; [5]
  Kd: > 1000 µM
[3]; [6]
  Kd: 2.91 µM

## ETLQFIDSM [compound 53]
[1]; [4]
  Kd: 426 µM
[2]; [5]
  Kd: > 1000 µM
[3]; [6]
  Kd: > 1000 µM
[3]; [8]
  Kd: > 1000 µM

## FIDSDSSSW [compound 57]
[1]; [4]
  Kd: > 1000 µM
[2]; [5]
  Kd: > 1000 µM
[3]; [6]
  Kd: 19.9 µM

## FSNDFGQSL [compound 35]
[1]; [4]
  Kd: 19.3 µM
[2]; [5]
  Kd: 126 µM
[3]; [6]
  Kd: > 1000 µM
[3]; [8]
  Kd: > 1000 µM

## GILSDHQQS [compound 74]
[1]; [4]
  Kd: > 1000 µM
[2]; [5]
  Kd: > 1000 µM
[3]; [6]
  Kd: > 1000 µM
[3]; [8]
  Kd: > 1000 µM

## GRVMQIDGV [compound 68]
[1]; [4]
  Kd: > 1000 µM
[2]; [5]
  Kd: > 1000 µM
[3]; [6]
  Kd: 23.4 µM

## GSPDEFSND [compound 72]
[1]; [4]
  Kd: > 1000 µM
[2]; [5]
  Kd: > 1000 µM
[3]; [6]
  Kd: > 1000 µM
[3]; [8]
  Kd: > 1000 µM

## GTHLDAGTV [compound 51]
[1]; [4]
  Kd: 218 µM
[2]; [5]
  Kd: > 1000 µM
[3]; [6]
  Kd: > 1000 µM
[3]; [8]
  Kd: > 1000 µM

## GYITCERPF [compound 65]
[1]; [4]
  Kd: > 1000 µM
[2]; [5]
  Kd: > 1000 µM
[3]; [6]
  Kd: 0.301 µM

## GYITLGKPH [compound 80]
[1]; [4]
  Kd: > 1000 µM
[2]; [5]
  Kd: > 1000 µM
[3]; [6]
  Kd: > 1000 µM
[3]; [8]
  Kd: > 1000 µM

## HMAKVIEFL [compound 38]
[1]; [4]
  Kd: > 1000 µM
[2]; [5]
  Kd: 2.06 µM
[3]; [6]
  Kd: 0.923 µM

## HMTSSERPF [compound 64]
[1]; [4]
  Kd: > 1000 µM
[2]; [5]
  Kd: > 1000 µM
[3]; [6]
  Kd: 68.4 µM

## IALETPVWI [compound 20]
[1]
  Kd: 3.03 µM
[2]
  Kd: 7.77 µM
[3]; [7]
  Kd: 3.29 µM

## IFADVSSST [compound 78]
[1]; [4]
  Kd: > 1000 µM
[2]; [5]
  Kd: > 1000 µM
[3]; [6]
  Kd: > 1000 µM
[3]; [8]
  Kd: > 1000 µM

## ILSDHQQSQ [compound 70]
[1]; [4]
  Kd: > 1000 µM
[2]; [5]
  Kd: > 1000 µM
[3]; [6]
  Kd: > 1000 µM
[3]; [8]
  Kd: > 1000 µM

## IQYSSFHNL [compound 21]
[1]
  Kd: 2.51 µM
[2]
  Kd: 5.17 µM
[3]; [7]
  Kd: 0.294 µM

## ISAYRTCWI [compound 34]
[1]; [4]
  Kd: 729 µM
[2]; [5]
  Kd: > 1000 µM
[3]; [6]
  Kd: 10 µM

## KFLEAFHEV [compound 8]
[1]; [4]
  Kd: 1.56 µM
[2]; [5]
  Kd: 1.17 µM
[3]; [6]
  Kd: 0.133 µM

## LAEEHGATL [compound 61]
[1]; [4]
  Kd: 32 µM
[2]; [5]
  Kd: > 1000 µM
[3]; [6]
  Kd: > 1000 µM
[3]; [8]
  Kd: > 1000 µM

## LAITRKSFI [compound 46]
[1]; [4]
  Kd: 911 µM
[2]; [5]
  Kd: > 1000 µM
[3]; [6]
  Kd: 7.61 µM

## LHEEHGATL [compound 79]
[1]; [4]
  Kd: > 1000 µM
[2]; [5]
  Kd: > 1000 µM
[3]; [6]
  Kd: > 1000 µM
[3]; [8]
  Kd: > 1000 µM

## LHITRKSFI [compound 63]
[1]; [4]
  Kd: > 1000 µM
[2]; [5]
  Kd: > 1000 µM
[3]; [6]
  Kd: 17.5 µM

## LIEEHGATL [compound 40]
[1]; [4]
  Kd: 15.3 µM
[2]; [5]
  Kd: 31.9 µM
[3]; [6]
  Kd: > 1000 µM
[3]; [8]
  Kd: > 1000 µM

## LIITRKSFI [compound 29]
[1]; [4]
  Kd: 230 µM
[2]; [5]
  Kd: 78.1 µM
[3]; [6]
  Kd: 2.5 µM

## LLITRKSFI [compound 16]
[1]; [4]
  Kd: 23.7 µM
[2]; [5]
  Kd: 7.39 µM
[3]; [6]
  Kd: 0.23 µM

## LLLFSAAAL [compound 1]
[1]; [4]
  Kd: 10.9 µM
[2]; [5]
  Kd: 0.881 µM
[3]; [6]
  Kd: 11.1 µM
